The record followed here is US20190110476A1, “NOVEL ISOTHIAZOLAMIDES, PROCESSES FOR THEIR PREPARATION AND THEIR USE AS FUNGICIDES” (priority 2014, published 2019).

Marks after values point to notes of the source that are not given here.

One series is described as follows: Measurement of LogP values by HPLC on reversed phase columns (EEC directive 79/831 Annex V.A8). Type of series: physicochemical.
Conditions: not given
In outline:
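LogP measured by reversed-phase HPLC following EEC directive 79/831 Annex V.A8. Lambda-max taken from UV spectra at 200–400 nm at chromatographic peak maxima; diastereoisomer values listed separately.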
For the compound `Cc1c(N)nsc1C(=O)NCC1CCCC1O` (single isomer, unassigned) [I-706], the LogP was 0.79[a].
Turning to `Cc1cccc(C)c1NC(=O)c1snc(N)c1Cl` [I-924], the LogP is 2.05[a].
Same read-out and setting: in the case of `Nc1nsc(C(=O)NCC2CCCCC2)c1C1CC1` [I-359] it was 2.37[a].
In the case of `COc1ccc(CNc2nsc(C(=O)N(Cc3cc(F)ccc3F)C3CC3)c2Cl)cc1` [I-987], the LogP is 4.15[a].
On the same count and under the same terms, in the case of `COc1ccc(CNc2nsc(C(=O)NC(C)c3ccno3)c2Cl)cc1` (centres unmarked) [I-1338] it was 2.73[a]; in that of `N#Cc1ccccc1NC(=O)c1cc(N(Cc2ccccc2)Cc2ccccc2)ns1` [I-905], 4.26[a].
`COc1ccc(CNc2nsc(C(=O)NCc3ccc(Cl)cc3)c2Cl)cc1` [I-242]: the LogP is 3.99[a].
Still for that read-out and setting: to `CC1CCCC(C)(C)C1CN(C(=O)c1snc(N)c1Cl)C1CC1` (centres unmarked) [I-081] belongs 4.08[a]; to `Nc1nsc(C(=O)NCCc2ccc(F)cc2)c1Cl` [I-966], 2.13[a].
In the case of `CC1(C)CC(CNC(=O)c2snc(N)c2Cl)C1` [I-243], the LogP was 2.49[a].
On to `Nc1nsc(C(=O)NCc2ccc(F)c(F)c2F)c1Cl` [I-121], for which the LogP is 2.09[a].
Same read-out and setting: to `COc1ccc(CNc2nsc(C(=O)NC3Cc4ccccc4C3)c2Cl)cc1` [I-1248] belongs 3.90[a]; to `CC(C)N(C(=O)c1snc(NC(=O)C(C)(C)C)c1Cl)C(C)C` [I-974], 2.80[a].
`CCn1ncc(CNC(=O)c2snc(NCc3ccc(OC)cc3)c2Cl)c1C(F)F` [I-1312]: the LogP was 3.09[a].
Consider `CCC(c1ccc(Cl)cc1Cl)N(C(=O)c1snc(N)c1Cl)C1CC1` (centres unmarked) [I-954], for which the LogP is 3.90[a].
As for `COc1ccc(CNc2nsc(C(=O)NCc3ccc(OC(F)F)cc3)c2Cl)cc1` [I-1229], the LogP is 3.63[a].
The same measure, in the same setting: in the case of `O=C(Nc1ccc(Cl)cc1Cl)c1cc(N(Cc2ccccc2)Cc2ccccc2)ns1` [I-903] it was 5.74[a].
The same measure, in the same setting: to `COc1ccc(CNc2nsc(C(=O)NCc3cccc(C)n3)c2Cl)cc1` [I-1345] belongs 1.78[a]; to `O=C(c1cc(NCc2ccccc2)ns1)N(Cc1cc(F)ccc1F)C1CC1` [I-998], 3.74[a].
As for `COc1ccc(CNc2nsc(C(=O)N3CCc4c(Cl)cccc4C3)c2Cl)cc1` [II-098], the “LogP [a]” value was 4.20^[a].
With `CCC(C)C(C)N(C(=O)c1cc(N(Cc2ccccc2)Cc2ccccc2)ns1)C1CC1` (centres unmarked) [I-938], the LogP is 5.97[a].
On to `Cc1c(CNC(=O)c2snc(N)c2Cl)ccc(F)c1F` [I-163], for which the LogP is 2.23[a].
Same read-out and setting: to `Cc1c(N)nsc1C(=O)NCc1ccc(C(F)F)cc1` [I-156] belongs 1.66[a].
Still for that read-out and setting: to `COc1ccc(CNc2nsc(C(=O)NCC3COCC3C)c2Cl)cc1` (centres unmarked) [I-1200] belongs 2.68[a]; to `O=C(NCc1cc(Cl)cc(Cl)c1)c1cc(N(Cc2ccccc2)Cc2ccccc2)ns1` [I-312], 2.90[a]; to `COc1ccc(CNc2nsc(C(=O)N(Cc3cc(Cl)cc(C(F)(F)F)c3)C3CC3)c2Cl)cc1` [I-947], 5.11[a].
As to `COc1ccc(CNc2nsc(C(=O)N3CCCc4cc(Cl)ccc43)c2Cl)cc1` [II-066], the “LogP [a]” value is 4.37^[a].
For `O=C(NCc1ccc(F)cc1F)c1snc(NC(=O)C(F)(F)F)c1Cl` [I-280], the LogP is 2.64[a].
On the same count and under the same terms, in the case of `COc1ccc(CNc2nsc(C(=O)NC3(C4CCCCC4)CC3)c2Cl)cc1` [I-113] it was 4.69[a]; in that of `CCc1ccc(CNC(=O)c2snc(NCc3ccc(OC)cc3)c2Cl)nc1` [I-1193], 2.34[a]; in that of `COc1ccc(CNc2nsc(C(=O)N(Cc3ccc(Cl)cc3Cl)C3CCC3)c2Cl)cc1` [I-934], 5.56[a].
Regarding `CC(c1ccc(Cl)cc1Cl)N(C(=O)c1snc(N)c1Cl)C1CC1` (centres unmarked) [I-953], the LogP was 3.50[a].
The same measure, in the same setting: in the case of `Nc1nsc(C(=O)NCc2ccc(Cl)cc2)c1-c1ccc(F)cc1` [I-336] it was 2.73[a]; in that of `COc1ccc(CNc2nsc(C(=O)N[C@@H](C)C3CCCCC3)c2Cl)cc1` [I-065], 4.66[a].
As to `CCCS(CC)=Nc1nsc(C(=O)NCC2CCCCC2)c1F` (centres unmarked) [II-093], the “LogP [a]” value is 2.07^[a].
As for `COc1ccc(CNc2nscc2Cl)cc1` [Z-A-005], the “LogP [a]” value was 3.00^[a].
`COc1ccc(CNc2nsc(C(=O)NCc3ccc(OC)c(C(F)(F)F)c3)c2Cl)cc1` [I-1321]: the LogP is 3.85[a].
With `Nc1nsc(C(=O)NCc2cncc(F)c2)c1Cl` [I-037], the LogP was 0.92[a].
The same measure, in the same setting: in the case of `O=C(NC1CCCCC1c1ccccc1)c1snc(NC(=O)C2CC2)c1Cl` (centres unmarked) [I-302] it was 3.19[a].
On to `CS(Cc1ccccc1Cl)=Nc1nsc(C(=O)NCC2CCCCC2)c1Cl` (centres unmarked) [II-085], for which the “LogP [a]” value is 3.61^[a].
For `CCCS(CC)=Nc1nsc(C(=O)NCc2ccc(F)cc2F)c1F` (centres unmarked) [II-094], the “LogP [a]” value was 1.77^[a].
Turning to `CCOc1c(N)nsc1C(=O)NCC1(O)CCCCC1` [I-726], the LogP was 1.55[a].
`C[C@H](NC(=O)c1snc(Cl)c1Cl)C1CCCCC1` [E-II-002]: the “LogP [a]” value is 4.56^[a].
In the case of `COc1ccc(CNc2nsc(C(=O)N(Cc3ccc(F)cc3F)C(=O)c3ccc(C(F)(F)F)cc3)c2Cl)cc1` [I-1556], the LogP was 5.14[a].
For the compound `CS(C)=Nc1nsc(C(=O)NCc2ccc(F)cc2F)c1Cl` [II-041], the “LogP [a]” value is 1.38^[a].
As to `Nc1nsc(C(=O)NCc2ccnc(F)c2)c1Cl` [I-038], the LogP was 1.04[a].
Same read-out and setting: to `Nc1nsc(C(=O)Nc2ccc(F)cc2)c1Cl` [I-857] belongs 2.04[a].
Still for that read-out and setting: to `Cc1ccc(CNC(=O)c2snc(N)c2C)c(F)c1` [I-145] belongs 1.81[a]; to `COc1ccc(CNc2nsc(C(=O)NCC3CC=CCC3)c2Cl)cc1` (centres unmarked) [I-078], 3.90[a].
As for `CCc1cccc(C)c1CN(C(=O)c1snc(NCc2ccc(OC)cc2)c1Cl)C1CC1` [I-898], the LogP is 5.17[a].
Consider `CC(c1cc(Cl)cc(Cl)c1)N(C(=O)c1cc(N)ns1)C1CC1` (centres unmarked) [I-979], for which the LogP is 3.19[a].
Take `Nc1nsc(C(=O)N2CCCc3ccc(C(F)(F)F)cc32)c1Cl` [II-018]: the “LogP [a]” value is 2.78 and the “LogP [b]” value came out at 2.71.
Consider `COc1ccc(CNc2nsc(C(=O)NCc3cc(Cl)ccc3Cl)c2Cl)cc1` [I-393], for which the LogP was 4.34[a].
Take `COc1ccc(CNc2nsc(C(=O)NCCC3=CCCCC3)c2Cl)cc1` [I-1266]: the LogP is 4.44[a].
On the same count and under the same terms, in the case of `Nc1nsc(C(=O)NCC2CCCCC2C(F)(F)F)c1Cl` (centres unmarked) [I-1566] it was 2.63[a]; in that of `O=C(NCc1ccccc1Cl)c1cc(N(Cc2ccccc2)Cc2ccccc2)ns1` [I-284], 4.67[a]; in that of `COc1ccc(CNc2nsc(C(=O)N(Cc3cc(Cl)ccc3F)C3CC3)c2Cl)cc1` [I-988], 4.49[a].
With `Cc1nn(C)cc1CNC(=O)c1snc(N)c1Cl` [I-034], the LogP is 0.76[a].
Still for that read-out and setting: to `C[C@H](NC(=O)c1snc(Nc2ccc(F)cc2)c1Cl)C1CCCCC1` [I-063] belongs 4.81[a].
For `COc1ccc(CNc2nsc(C(=O)NC(C)c3ccc(C(C)C)cc3)c2Cl)cc1` (centres unmarked) [I-1207], the LogP was 4.69[a].
For `C[C@H](NC(=S)c1snc(N)c1Cl)C1CCCCC1` [I-418], the LogP is 3.85[a].
Same read-out and setting: in the case of `COc1ccc(CNc2nsc(C(=O)Nc3cccc4c3C(C)OC4(C)C)c2Cl)cc1` (centres unmarked) [I-869] it was 3.96[a]; in that of `O=C(NCc1cccc(F)c1)c1cc(N(Cc2ccccc2)Cc2ccccc2)ns1` [I-310], 4.40[a].
Take `C[C@H]1CCCC[C@H]1NC(=O)c1snc(N)c1F` (relative stereo) [I-1356]: the LogP was 2.11[a].
The same measure, in the same setting: to `COc1ccc(CNc2nsc(C(=O)NC3CCc4cc(C(C)(C)C)ccc43)c2Cl)cc1` (centres unmarked) [I-1331] belongs 5.22[a].
On the same count and under the same terms, in the case of `COc1ccc(CNc2nsc(C(=O)N(Cc3cc(C)ccc3C)C3CC3)c2Cl)cc1` [I-876] it was 4.77[a]; in that of `CCOc1c(N)nsc1C(=O)NCC1CCCCCC1` [I-728], 2.83[a]; in that of `CC(c1ccccc1C(F)(F)F)N(C(=O)c1snc(N)c1Cl)C1CC1` (centres unmarked) [I-957], 3.13[a].
With `Cc1ccc(S(C)=Nc2nsc(C(=O)NCc3ccc(F)cc3F)c2F)cc1` (centres unmarked) [II-058], the “LogP [a]” value was 2.74^[a].
Turning to `CC1(C)CCCCC1CNC(=O)c1snc(N)c1Cl` (centres unmarked) [I-080], the LogP was 3.05[a].
With `CC(C)OC(=O)c1snc(N(C(=O)OC(C)(C)C)C(=O)OC(C)(C)C)c1Cl` [E-VII-011], the “LogP [a]” value is 5.00^[a].
In the case of `COc1ccc(CNc2nsc(C(=O)N(C3CC3)C(C)c3ccc(Cl)cc3Cl)c2Cl)cc1` (centres unmarked) [I-931], the LogP was 5.22[a].
Regarding `COc1ccc(CNc2nsc(C(=O)NC(C)c3ccccc3Cl)c2Cl)cc1` (centres unmarked) [I-112], the LogP is 4.16[a].
On the same count and under the same terms, to `COc1ccc(CNc2nsc(C(=O)NC3CCCCC3c3ccccc3)c2Cl)cc1` (centres unmarked) [I-267] belongs 4.69[a]; to `COc1cccc(CNC(=O)c2snc(N)c2Cl)c1Cl` [I-465], 2.23[a].
Same read-out and setting: to `CCOc1ccccc1CNC(=O)c1snc(NCc2ccc(OC)cc2)c1Cl` [I-1247] belongs 4.08[a]; to `COc1c(N)nsc1C(=O)NCC1CCCCCC1` [I-735], 2.50[a].
Same read-out and setting: to `Nc1cc(C(=O)NCc2cccc(Cl)c2)sn1` [I-281] belongs 1.78[a]; to `O=C(NC1CCCCC1)c1snc(N(Cc2ccccc2)Cc2ccccc2)c1-c1ccc(F)cc1` [I-319], 5.98[a].
For `Cc1cc(F)ccc1CNC(=O)c1snc(NC(=O)C(F)F)c1Cl` [I-809], the LogP is 2.28[a].

Still in this series, the particulars now being: HPLC LC-UV, acidic range, 0.1% formic acid in water and acetonitrile as eluent.
A word on the chromatographic logP: it is a lipophilicity value derived from retention on a column. High values mean higher lipophilicity, low ones lower lipophilicity. Compound `O=C(O)c1cc(N(Cc2ccccc2)Cc2ccccc2)ns1` [E-VIII-003, 3-(dibenzylamino)-1,2-thiazole-5-carboxylic acid] came in with a chromatographic logP of 3.35.
As for `O=C(NCC1CCCCC1)c1snc(Cl)c1Cl` [E-II-001, 3,4-dichloro-N-(cyclohexylmethyl)isothiazole-5-carboxamide], the chromatographic logP is 4.11.
